From patent publication US8486933B2, “Pyrimidine inhibitors of kinase activity” (AbbVie Inc., priority 2009, dated 2013)

Target: T1, human IGF-1R (Homo sapiens, UniProt P08069)
T1 construct: human IGF-1R, amino acids 954-1367 expressed by baculovirus in Sf21 cells; GST (C); purchased Cell Signaling Technology; host or cells: baculovirus in Sf21 cells
Assay: IGF-1R homogenous time-resolved fluorescence (HTRF) in vitro kinase assay
Format: biochemical
Details: recombinant GST-tagged human IGF-1R aa 954-1367; ATP 50 μM; 60 minutes at room temperature
Description: IGF-1R kinase activity was assayed by a homogenous time-resolved fluorescence (HTRF) in vitro kinase assay (Mathis, G., HTRF(R) Technology. J Biomol Screen, 1999. 4(6): p. 309-314). Specifically, 10 μL C-terminal GST-tagged, recombinant, human IGF-1R, amino acids 954-1367 expressed by baculovirus in Sf21 cells (Cell Singaling Technology) was mixed with 10 μL inhibitor (various concentrations, 2% final DMSO) and 10 μL of ATP (50 μM final concentration) in reaction buffer (50 mM HEPES, pH 7.5, 10 mM MgCl2, 2 mM MnCl2, 0.1% BSA and 1 mM DTT, 40 μL final volume). The reaction was initiated by addition of 10 μL of biotinylated peptide substrate (Biotin-Ahx-[…], 0.5 μM final concentration) in a black 384-well plate (Packard). […] The quenched reaction was allowed to stand at room temperature for 1 hour and then read in a time-resolved fluorescence detector (Envision, Perkin Elmer) at 615 nm and 665 nm simultaneously. The ratio between the signal of 615 nm and 665 nm was used in the calculation of the IC50.

T1 sequence (P08069 954-1367): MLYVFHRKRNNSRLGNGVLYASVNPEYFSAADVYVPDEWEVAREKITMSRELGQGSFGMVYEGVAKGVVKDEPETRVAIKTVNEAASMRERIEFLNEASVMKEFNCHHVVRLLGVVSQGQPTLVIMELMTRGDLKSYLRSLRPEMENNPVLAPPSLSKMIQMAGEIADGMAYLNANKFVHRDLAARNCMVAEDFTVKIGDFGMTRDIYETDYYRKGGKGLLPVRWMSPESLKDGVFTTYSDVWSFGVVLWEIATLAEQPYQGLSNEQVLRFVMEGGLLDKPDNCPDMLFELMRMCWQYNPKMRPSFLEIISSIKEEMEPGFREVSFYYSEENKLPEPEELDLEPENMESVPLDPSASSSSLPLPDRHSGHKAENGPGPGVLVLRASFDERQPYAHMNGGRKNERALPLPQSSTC

Row | Structure (SMILES) | IC50
1 | CCN1CCN(c2ccc(Nc3ncc(Br)c(Nc4ccc5[nH]c(C(F)(F)F)nc5c4)n3)cc2)CC1 [Example 1, 5-bromo-N^2-[4-(4-ethylpiperazin-1-yl)phenyl]-N^4-[2-(trifluoromethyl)-1H-benzimidazol-5-yl]pyrimidine-2,4-diamine] | > 500 nM
2 | CCN1CCN(c2ccc(Nc3ncc(Br)c(Nc4ccc5[nH]c(Cc6ccccc6)nc5c4)n3)cc2)CC1 [Example 2, N^4-(2-benzyl-1H-benzimidazol-5-yl)-5-bromo-N^2-[4-(4-ethylpiperazin-1-yl)phenyl]pyrimidine-2,4-diamine] | > 500 nM
3 | CCN1CCN(c2ccc(Nc3ncc(Br)c(Nc4ccc5[nH]c(CCc6ccccc6)nc5c4)n3)cc2)CC1 [Example 3, 5-bromo-N^2-[4-(4-ethylpiperazin-1-yl)phenyl]-N^4-[2-(2-phenylethyl)-1H-benzimidazol-5-yl]pyrimidine-2,4-diamine] | > 500 nM
4 | CCN1CCN(c2ccc(Nc3ncc(Br)c(Nc4ccc5c(c4)ncn5Cc4ccccc4)n3)cc2)CC1 [Example 4, N^4-(1-benzyl-1H-benzimidazol-5-yl)-5-bromo-N^2-[4-(4-ethylpiperazin-1-yl)phenyl]pyrimidine-2,4-diamine] | 101 to 500 nM
5 | CCN1CCN(c2ccc(Nc3ncc(Br)c(Nc4ccc5ncn(Cc6ccccc6)c5c4)n3)cc2)CC1 [Example 5, N^4-(1-benzyl-1H-benzimidazol-6-yl)-5-bromo-N^2-[4-(4-ethylpiperazin-1-yl)phenyl]pyrimidine-2,4-diamine] | > 500 nM
6 | CCN1CCN(c2ccc(Nc3ncc(Br)c(Nc4cccc5[nH]c(C)nc45)n3)cc2)CC1 [Example 6, 5-bromo-N^2-[4-(4-ethylpiperazin-1-yl)phenyl]-N^4-(2-methyl-1H-benzimidazol-4-yl)pyrimidine-2,4-diamine] | > 500 nM
7 | CCN1CCN(c2ccc(Nc3ncc(Br)c(Nc4ccc5[nH]ncc5c4)n3)cc2)CC1 [Example 7, 5-bromo-N^2-[4-(4-ethylpiperazin-1-yl)phenyl]-N^4-1H-indazol-5-ylpyrimidine-2,4-diamine] | 51 to 100 nM
8 | CCN1CCN(c2ccc(Nc3ncc(C)c(Nc4ccc5[nH]ncc5c4)n3)cc2)CC1 [Example 9, N^2-[4-(4-ethylpiperazin-1-yl)phenyl]-N^4-1H-indazol-5-yl-5-methylpyrimidine-2,4-diamine] | > 500 nM
9 | CCN1CCN(c2ccc(Nc3ncc(C(F)(F)F)c(Nc4ccc5[nH]ncc5c4)n3)cc2)CC1 [Example 11, N^2-[4-(4-ethylpiperazin-1-yl)phenyl]-N^4-1H-indazol-5-yl-5-(trifluoromethyl)pyrimidine-2,4-diamine] | 101 to 500 nM
10 | COc1cc(N2CCC(N(C)C)CC2)ccc1Nc1ncc(Br)c(Nc2ccc3[nH]ncc3c2)n1 [Example 12, 5-bromo-N^2-{4-[4-(dimethylamino)piperidin-1-yl]-2-methoxyphenyl}-N^4-1H-indazol-5-ylpyrimidine-2,4-diamine] | 10 to 50 nM
11 | COc1cc(N2CCC(N3CCN(C)CC3)CC2)ccc1Nc1ncc(Br)c(Nc2ccc3[nH]ncc3c2)n1 [Example 13, 5-bromo-N^4-1H-indazol-5-yl-N^2-{2-methoxy-4-[4-(4-methylpiperazin-1-yl)piperidin-1-yl]phenyl}pyrimidine-2,4-diamine] | 10 to 50 nM
12 | CCN1CCN(c2ccc(Nc3ncc(Br)c(Nc4ccc5scnc5c4)n3)cc2)CC1 [Example 14, N^4-1,3-benzothiazol-5-yl-5-bromo-N^2-[4-(4-ethylpiperazin-1-yl)phenyl]pyrimidine-2,4-diamine] | 101 to 500 nM
13 | CCN1CCN(c2ccc(Nc3ncc(Br)c(Nc4cccc5oc(C)nc45)n3)cc2)CC1 [Example 15, 5-bromo-N^2-[4-(4-ethylpiperazin-1-yl)phenyl]-N^4-(2-methyl-1,3-benzoxazol-4-yl)pyrimidine-2,4-diamine] | 101 to 500 nM
14 | COc1cc(N2CCC(N(C)C)CC2)ccc1Nc1ncc(Br)c(Nc2cccc3[nH]c(C)nc23)n1 [Example 16, 5-bromo-N^2-{4-[4-(dimethylamino)piperidin-1-yl]-2-methoxyphenyl}-N^4-(2-methyl-1H-benzimidazol-4-yl)pyrimidine-2,4-diamine] | 101 to 500 nM
15 | COc1cc(N2CCC(N(C)C)CC2)ccc1Nc1ncc(Cl)c(Nc2cccc3[nH]c(C)nc23)n1 [Example 17, 5-chloro-N^2-{4-[4-(dimethylamino)piperidin-1-yl]-2-methoxyphenyl}-N^4-(2-methyl-1H-benzimidazol-4-yl)pyrimidine-2,4-diamine] | > 500 nM
16 | COc1cc(N2CCC(N(C)C)CC2)ccc1Nc1ncc(Cl)c(Nc2ccc3c(cnn3C)c2)n1 [Example 18, 5-chloro-N^2-{4-[4-(dimethylamino)piperidin-1-yl]-2-methoxyphenyl}-N^4-(1-methyl-1H-indazol-5-yl)pyrimidine-2,4-diamine] | 101 to 500 nM
17 | COc1cc(N2CCC(N(C)C)CC2)ccc1Nc1ncc(Br)c(Nc2ccc3c(cnn3C)c2)n1 [Example 19, 5-bromo-N^2-{4-[4-(dimethylamino)piperidin-1-yl]-2-methoxyphenyl}-N^4-(1-methyl-1H-indazol-5-yl)pyrimidine-2,4-diamine] | 51 to 100 nM
18 | COc1cc(N2CCC(N(C)C)CC2)ccc1Nc1ncc(Br)c(Nc2cc3cn[nH]c3cc2Cl)n1 [Example 20, 5-bromo-N^4-(6-chloro-1H-indazol-5-yl)-N^2-{4-[4-(dimethylamino)piperidin-1-yl]-2-methoxyphenyl}pyrimidine-2,4-diamine] | 10 to 50 nM
19 | COc1cc(N2CCC(N(C)C)CC2)ccc1Nc1ncc(Br)c(Nc2cc3cn[nH]c3cc2C)n1 [Example 21, 5-bromo-N^2-{4-[4-(dimethylamino)piperidin-1-yl]-2-methoxyphenyl}-N^4-(6-methyl-1H-indazol-5-yl)pyrimidine-2,4-diamine] | 101 to 500 nM
20 | COc1cc(N2CCC(N(C)C)CC2)ccc1Nc1ncc(Br)c(Nc2ccc3sc(C)nc3c2)n1 [Example 22, 5-bromo-N^2-{4-[4-(dimethylamino)piperidin-1-yl]-2-methoxyphenyl}-N^4-(2-methyl-1,3-benzothiazol-5-yl)pyrimidine-2,4-diamine] | 51 to 100 nM
21 | COc1cc(N2CCC(N(C)C)CC2)ccc1Nc1ncc(Br)c(Nc2cc3cn[nH]c3cc2S(=O)(=O)C(C)C)n1 [Example 23, 5-bromo-N^2-{4-[4-(dimethylamino)piperidin-1-yl]-2-methoxyphenyl}-N^4-[6-(isopropylsulfonyl)-1H-indazol-5-yl]pyrimidine-2,4-diamine] | < 10 nM
22 | COc1cc(N2CCC(N(C)C)CC2)ccc1Nc1ncc(Br)c(Nc2cc3cn[nH]c3cc2SC(C)C)n1 [Example 24, 5-bromo-N^2-{4-[4-(dimethylamino)piperidin-1-yl]-2-methoxyphenyl}-N^4-[6-(isopropylthio)-1H-indazol-5-yl]pyrimidine-2,4-diamine] | 10 to 50 nM
23 | COc1cc(N2CCC(N(C)C)CC2)ccc1Nc1ncc(Cl)c(Nc2ccc3oc(C)nc3c2)n1 [Example 25, 5-chloro-N^2-{4-[4-(dimethylamino)piperidin-1-yl]-2-methoxyphenyl}-N^4-(2-methyl-1,3-benzoxazol-5-yl)pyrimidine-2,4-diamine] | > 500 nM
24 | COc1cc(N2CCC(N(C)C)CC2)ccc1Nc1ncc(Cl)c(Nc2cc3cn[nH]c3cc2S(=O)(=O)C(C)C)n1 [Example 26, 5-chloro-N^2-{4-[4-(dimethylamino)piperidin-1-yl]-2-methoxyphenyl}-N^4-[6-(isopropylsulfonyl)-1H-indazol-5-yl]pyrimidine-2,4-diamine] | 10 to 50 nM
